Source: patent US20260070945A1, “MACROCYCLIC IMMUNOMODULATORS” (Bristol-Myers Squibb Company, priority 2022, published 2026)
Where a SMILES comes first, the peptide text is derived from it. Bridges are numbered along the chain shown (N, C = ends). [ ]: non-standard residue; d: D form. The star is where a group is joined. Phe(4-CH2CH2COOH) = N[C@@H](Cc1ccc(CCC(=O)O)cc1)C(=O)O; Trp(βS-Me) = C[C@@H](c1c[nH]c2ccccc12)[C@H](N)C(=O)O; Phe(4-COOH) = N[C@@H](Cc1ccc(C(=O)O)cc1)C(=O)O; Bip = N[C@@H](Cc1ccc(-c2ccccc2)cc1)C(=O)O; Phe(3-Me) = Cc1cccc(C[C@H](N)C(=O)O)c1; Cha = N[C@@H](CC1CCCCC1)C(=O)O; Carboxymethyl = O=C(O)C*; NMeA = CN[C@@H](C)C(=O)O; Aun = NCCCCCCCCCCC(=O)O; Dab = NCC[C@H](N)C(=O)O; Dap = NC[C@H](N)C(=O)O; AEEA = NCCOCCOCC(=O)O; Ac3c = NC1(C(=O)O)CC1; Piv = CC(C)(C)C(=O)*

Molecular target: T1, PD-1/PD-L1 interaction (PE-labeled human PD-L1-Ig binding to Jurkat cell line over-expressing human PD-1) (Homo sapiens, UniProt Q15116)
T1 construct: expressed in transfected cells; host or cells: Jurkat
T1 sequence (Q15116 25-288): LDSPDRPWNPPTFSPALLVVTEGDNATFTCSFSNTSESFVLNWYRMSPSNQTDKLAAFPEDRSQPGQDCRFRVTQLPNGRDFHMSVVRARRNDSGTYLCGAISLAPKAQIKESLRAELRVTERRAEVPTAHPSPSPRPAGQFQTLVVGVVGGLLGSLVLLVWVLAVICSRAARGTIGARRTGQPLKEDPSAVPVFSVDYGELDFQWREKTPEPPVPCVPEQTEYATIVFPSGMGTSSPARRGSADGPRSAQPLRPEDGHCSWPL
Assay: Jurkat-PD-1 Cell Binding High-Content Screening Assay (CBA)
Details: Jurkat-hPD-1 cells, PE-labeled PD-L1-Ig 20 nM final; read-out: Jurkat HPD1 PDL1 IC50
Method in brief: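 Read-out: high-content imaging of cell-bound PE fluorescence, with Hoechst 33342 nuclear counterstain after paraformaldehyde fixation. Before labeled ligand (20 nM final, 1 h) was added, compound sat on the cells for 2 h at 37 °C in DMEM/10% FCS.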

| Structure (SMILES) | IC50 |
| --- | --- |
| Cc1cccc(C[C@@H]2NC(=O)[C@H](CC(=O)O)NC(=O)[C@H](Cc3ccc(OCC(=O)O)cc3)NC(=O)[C@H](CN)NC(=O)CSC[C@@H](C(=O)N[C@@H](CCN)C(=O)NCCCCCCCCCCC(=O)O)NC(=O)[C@H](CO)NC(=O)[C@H](C(C)C)NC(=O)[C@H](CC3CCCCC3)NC(=O)[C@H](CCN)NC(=O)[C@@H](CC(C)C)NC(=O)[C@H](C)N(C)C(=O)[C@H](Cc3ccc(OCC(=O)O)cc3)NC(=O)[C@H](Cc3ccc(-c4ccccc4)cc3)NC(=O)[C@H](C(C)C)NC2=O)c1 [Example 1261] ({CH2CO}-[Dap]Y(Carboxymethyl)D[Phe(3-Me)]V[Bip]Y(Carboxymethyl)[NMeA][dL][Dab][Cha]VSC[Dab][Aun]-OH; thioether N-14) | 16.6 nM |
| Cc1cccc(C[C@@H]2NC(=O)[C@H](CC(=O)O)NC(=O)[C@H](Cc3ccc(OCC(=O)O)cc3)NC(=O)[C@H](CN)NC(=O)CSC[C@@H](C(=O)N[C@@H](CCN)C(=O)NCCCCCCCCCCC(=O)O)NC(=O)[C@H]([C@@H](C)O)NC(=O)[C@H](C(C)C)NC(=O)[C@H](CC3CCCCC3)NC(=O)[C@H](CCN)NC(=O)[C@@H](CC(C)C)NC(=O)[C@H](C)N(C)C(=O)[C@H](Cc3ccc(OCC(=O)O)cc3)NC(=O)[C@H](Cc3ccc(-c4ccccc4)cc3)NC(=O)[C@H](Cc3ccc(CCC(=O)O)cc3)NC2=O)c1 [Example 1262] ({CH2CO}-[Dap]Y(Carboxymethyl)D[Phe(3-Me)][Phe(4-CH2CH2COOH)][Bip]Y(Carboxymethyl)[NMeA][dL][Dab][Cha]VTC[Dab][Aun]-OH; thioether N-14) | 8.9 nM |
| Cc1cccc(C[C@@H]2NC(=O)[C@H](CC(=O)O)NC(=O)[C@H](Cc3ccc(OCC(=O)O)cc3)NC(=O)[C@H](CN)NC(=O)CSC[C@@H](C(=O)N[C@@H](CCN)C(=O)NCCCCCCCCCCC(=O)O)NC(=O)[C@H](CO)NC(=O)[C@H](C(C)C)NC(=O)[C@H](CC3CCCCC3)NC(=O)[C@H](CCN)NC(=O)[C@@H](CC(C)C)NC(=O)[C@H](C)N(C)C(=O)[C@H](Cc3ccc(OCC(=O)O)cc3)NC(=O)[C@H](Cc3ccc(-c4ccccc4)cc3)NC(=O)[C@H](Cc3ccc(OCC(=O)O)cc3)NC2=O)c1 [Example 1263] ({CH2CO}-[Dap]Y(Carboxymethyl)D[Phe(3-Me)]Y(Carboxymethyl)[Bip]Y(Carboxymethyl)[NMeA][dL][Dab][Cha]VSC[Dab][Aun]-OH; thioether N-14) | 12.7 nM |
| Cc1cccc(C[C@@H]2NC(=O)[C@H](CC(=O)O)NC(=O)[C@H](Cc3ccc(OCC(=O)O)cc3)NC(=O)[C@H](Cc3ccc(OCC(=O)O)cc3)NC(=O)CSC[C@@H](C(=O)N[C@@H](CCN)C(=O)NCCCCCCCCCCC(=O)O)NC(=O)[C@H]([C@@H](C)O)NC(=O)[C@H](C(C)C)NC(=O)[C@H](CC3CCCCC3)NC(=O)[C@H](CCN)NC(=O)[C@@H](CC(C)C)NC(=O)[C@H](C)N(C)C(=O)[C@H](Cc3ccc(OCC(=O)O)cc3)NC(=O)[C@H](Cc3ccc(-c4ccccc4)cc3)NC(=O)[C@H](C(C)C)NC2=O)c1 [Example 1264] ({CH2CO}-Y(Carboxymethyl)Y(Carboxymethyl)D[Phe(3-Me)]V[Bip]Y(Carboxymethyl)[NMeA][dL][Dab][Cha]VTC[Dab][Aun]-OH; thioether N-14) | 31.8 nM |
| Cc1cccc(C[C@@H]2NC(=O)[C@H](CC(=O)O)NC(=O)[C@H](Cc3ccc(OCC(=O)O)cc3)NC(=O)[C@H](Cc3ccc(OCC(=O)O)cc3)NC(=O)CSC[C@@H](C(=O)N[C@@H](CCN)C(=O)NCCCCCCCCCCC(=O)O)NC(=O)[C@H](CO)NC(=O)[C@H](C(C)C)NC(=O)[C@H](CC3CCCCC3)NC(=O)[C@H](CCN)NC(=O)[C@@H](CC(C)C)NC(=O)[C@H](C)N(C)C(=O)[C@H](Cc3ccc(OCC(=O)O)cc3)NC(=O)[C@H](Cc3ccc(-c4ccccc4)cc3)NC(=O)[C@H](C(C)C)NC2=O)c1 [Example 1265] ({CH2CO}-Y(Carboxymethyl)Y(Carboxymethyl)D[Phe(3-Me)]V[Bip]Y(Carboxymethyl)[NMeA][dL][Dab][Cha]VSC[Dab][Aun]-OH; thioether N-14) | 44.1 nM |
| Cc1cccc(C[C@@H]2NC(=O)[C@H](CC(=O)O)NC(=O)[C@H](Cc3ccc(OCC(=O)O)cc3)NC(=O)[C@H](CCCNC(=N)N)NC(=O)CSC[C@@H](C(=O)N[C@@H](CCN)C(=O)NCCCCCCCCCCC(=O)O)NC(=O)[C@@H](CO)NC(=O)[C@H](C(C)C)NC(=O)[C@H](CC3CCCCC3)NC(=O)[C@H](CCN)NC(=O)[C@@H](CC(C)C)NC(=O)[C@H](C)N(C)C(=O)[C@H](Cc3ccc(OCC(=O)O)cc3)NC(=O)[C@H](Cc3ccc(-c4ccccc4)cc3)NC(=O)[C@H](C(C)C)NC2=O)c1 [Example 1266] ({CH2CO}-RY(Carboxymethyl)D[Phe(3-Me)]V[Bip]Y(Carboxymethyl)[NMeA][dL][Dab][Cha]V[dS]C[Dab][Aun]-OH; thioether N-14) | 26.6 nM |
| Cc1cccc(C[C@@H]2NC(=O)[C@H](CC(=O)O)NC(=O)[C@H](Cc3ccc(CCC(=O)O)cc3)NC(=O)[C@H](CCCNC(=N)N)NC(=O)CSC[C@@H](C(=O)N[C@@H](CCN)C(=O)NCCCCCCCCCCC(=O)O)NC(=O)[C@@H](CO)NC(=O)[C@H](C(C)C)NC(=O)[C@H](CC3CCCCC3)NC(=O)[C@H](CCN)NC(=O)[C@@H](CC(C)C)NC(=O)[C@H](C)N(C)C(=O)[C@H](Cc3ccc(O)cc3)NC(=O)[C@H](Cc3ccc(-c4ccccc4)cc3)NC(=O)[C@H](C(C)C)NC2=O)c1 [Example 1267] ({CH2CO}-R[Phe(4-CH2CH2COOH)]D[Phe(3-Me)]V[Bip]Y[NMeA][dL][Dab][Cha]V[dS]C[Dab][Aun]-OH; thioether N-14) | 22.8 nM |
| Cc1cccc(C[C@@H]2NC(=O)[C@H](CC(=O)O)NC(=O)[C@H](Cc3ccc(CCC(=O)O)cc3)NC(=O)[C@H](CCNC(=O)C(C)(C)C)NC(=O)CSC[C@@H](C(=O)N[C@@H](CCN)C(=O)NCCCCCCCCCCC(=O)O)NC(=O)[C@H]([C@@H](C)O)NC(=O)[C@H](C(C)C)NC(=O)[C@H](CC3CCCCC3)NC(=O)[C@H](CCN)NC(=O)[C@@H](CC(C)C)NC(=O)[C@H](C)N(C)C(=O)[C@H](Cc3ccc(OCC(=O)O)cc3)NC(=O)[C@H](Cc3ccc(-c4ccccc4)cc3)NC(=O)[C@H](Cc3ccc(C(=O)O)cc3)NC2=O)c1 [Example 1269] ({CH2CO}-[Dab](Piv)[Phe(4-CH2CH2COOH)]D[Phe(3-Me)][Phe(4-COOH)][Bip]Y(Carboxymethyl)[NMeA][dL][Dab][Cha]VTC[Dab][Aun]-OH; thioether N-14) | 19.2 nM |
| Cc1cccc(C[C@@H]2NC(=O)[C@H](CC(=O)O)NC(=O)[C@H](Cc3ccc(OCC(=O)O)cc3)NC(=O)[C@H](CCNC(=O)C(C)(C)C)NC(=O)CSC[C@@H](C(=O)N[C@@H](CCN)C(=O)NCCCCCCCCCCC(=O)O)NC(=O)[C@H](CCC(N)=O)NC(=O)[C@H](C(C)C)NC(=O)[C@H](CC3CCCCC3)NC(=O)[C@H](CCN)NC(=O)[C@@H](CC(C)C)NC(=O)[C@H](C)N(C)C(=O)[C@H](Cc3ccc(OCC(=O)O)cc3)NC(=O)[C@H](Cc3ccc(-c4ccccc4)cc3)NC(=O)[C@H](Cc3ccc(C(=O)O)cc3)NC2=O)c1 [Example 1270] ({CH2CO}-[Dab](Piv)Y(Carboxymethyl)D[Phe(3-Me)][Phe(4-COOH)][Bip]Y(Carboxymethyl)[NMeA][dL][Dab][Cha]VQC[Dab][Aun]-OH; thioether N-14) | 61.9 nM |
| CC(C)C[C@@H]1NC(=O)[C@H]([C@@H](C)c2c[nH]c3ccccc23)NC(=O)[C@H](CC(=O)O)NC(=O)[C@H](Cc2ccc(OCC(=O)O)cc2)NC(=O)[C@H](Cc2ccc(OCC(=O)O)cc2)NC(=O)CSC[C@@H](C(=O)NC2(C(=O)NCCOCCOCC(=O)NCCCCCCCCCCC(=O)O)CC2)NC(=O)[C@H](CCCNC(=N)N)NC(=O)[C@H](C(C)C)NC(=O)[C@H](CC2CCCCC2)NC(=O)[C@H](CCN)NC(=O)[C@@H](CC(C)C)NC(=O)[C@H](C)N(C)C(=O)[C@H](C(C)C)NC(=O)[C@H](Cc2ccc(-c3ccccc3)cc2)NC1=O [Example 1271] ({CH2CO}-Y(Carboxymethyl)Y(Carboxymethyl)D[Trp(βS-Me)]L[Bip]V[NMeA][dL][Dab][Cha]VRC[Ac3c][AEEA][Aun]-OH; thioether N-14) | 39.1 nM |
| CC(C)C[C@@H]1NC(=O)[C@H]([C@@H](C)c2c[nH]c3ccccc23)NC(=O)[C@H](CC(=O)O)NC(=O)[C@H](Cc2ccc(OCC(=O)O)cc2)NC(=O)[C@H](Cc2ccc(OCC(=O)O)cc2)NC(=O)CSC[C@@H](C(=O)NC2(C(=O)NCCOCCOCC(=O)NCCCCCCCCCCC(=O)O)CC2)NC(=O)[C@H](CCC(N)=O)NC(=O)[C@H](C(C)C)NC(=O)[C@H](CC2CCCCC2)NC(=O)[C@H](CCN)NC(=O)[C@@H](CC(C)C)NC(=O)[C@H](C)N(C)C(=O)[C@H](C(C)C)NC(=O)[C@H](Cc2ccc(-c3ccccc3)cc2)NC1=O [Example 1272] ({CH2CO}-Y(Carboxymethyl)Y(Carboxymethyl)D[Trp(βS-Me)]L[Bip]V[NMeA][dL][Dab][Cha]VQC[Ac3c][AEEA][Aun]-OH; thioether N-14) | 40.3 nM |
| CC(C)C[C@H]1NC(=O)[C@H](C)N(C)C(=O)[C@H](Cc2ccc(OCC(=O)O)cc2)NC(=O)[C@H](Cc2ccc(-c3ccccc3)cc2)NC(=O)[C@H](Cc2ccc(OCC(=O)O)cc2)NC(=O)[C@H]([C@@H](C)c2c[nH]c3ccccc23)NC(=O)[C@H](CC(=O)O)NC(=O)[C@H](Cc2ccc(OCC(=O)O)cc2)NC(=O)[C@H](CCCNC(=N)N)NC(=O)CSC[C@@H](C(=O)N[C@@H](CCN)C(=O)NCCCCCCCCCCC(=O)O)NC(=O)[C@H]([C@@H](C)O)NC(=O)[C@H](C(C)C)NC(=O)[C@H](CC2CCCCC2)NC(=O)[C@H](CCN)NC1=O [Example 1273] ({CH2CO}-RY(Carboxymethyl)D[Trp(βS-Me)]Y(Carboxymethyl)[Bip]Y(Carboxymethyl)[NMeA][dL][Dab][Cha]VTC[Dab][Aun]-OH; thioether N-14) | 327 nM |
